Assay results reported in ChEMBL document CHEMBL4190243, “Natural alkaloids as P-gp inhibitors for multidrug resistance reversal in cancer” (Eur J Med Chem, 2017).
Residues, ends and D or L forms follow the SMILES beside them.

Legend:
K562/A02 = assay: Inhibition of P-gp in human K562/A02 cells assessed as potentiation of doxorubicin-induced cytotoxicity by measuring fold reduction in doxorubicin IC50; type: cell-based
Homo sapiens [1] = organism: Homo sapiens; assay: Inhibition of P-gp in human Bel7402/5-FU cells assessed as increase in intracellular accumulation of doxorubicin at 0.4 mg/ml preincubated for 48 hrs followed by doxorubicin addition measured after 2 hrs by FACS analysis relative to control; type: cell-based
Homo sapiens [2] = organism: Homo sapiens; assay: Inhibition of P-gp in human Bel7402/5-FU cells assessed as increase in intracellular accumulation of Rh123 at 0.8 mg/ml preincubated for 48 hrs followed by Rh123 addition measured after 2 hrs by FACS analysis relative to control; type: cell-based
Homo sapiens [3] = organism: Homo sapiens; assay: Inhibition of P-gp in human HCT116/VM46 cells assessed as potentiation of vinblastine-induced cytotoxicity by measuring fold reduction in vinblastine IC50; type: cell-based
MES-SA/Dx5 = assay: Inhibition of P-gp in human MES-SA/Dx5 cells assessed as potentiation of paclitaxel-induced cytotoxicity; type: cell-based
Homo sapiens [4] = organism: Homo sapiens; assay: Inhibition of P-gp in human MCF7/DOX cells assessed as potentiation of doxorubicin-induced cytotoxicity by measuring fold reduction in doxorubicin IC50 at 5 uM; type: cell-based
Homo sapiens [5] = organism: Homo sapiens; assay: Inhibition of P-gp in human A549/DDP cells assessed as potentiation of doxorubicin-induced cytotoxicity; type: cell-based
Homo sapiens [6] = organism: Homo sapiens; assay: Inhibition of P-gp in human MCF7/DOX cells assessed as potentiation of mitoxantrone-induced cytotoxicity by measuring fold reduction in mitoxantrone IC50 at 50 uM after 48 hrs by MTT assay; type: cell-based
Homo sapiens [7] = organism: Homo sapiens; assay: Inhibition of P-gp in human lung cancer cells assessed as potentiation of doxorubicin-induced cytotoxicity by measuring fold reduction in doxorubicin IC50; type: cell-based
Homo sapiens [8] = organism: Homo sapiens; assay: Inhibition of MRP in P-gp null human lung cancer cells assessed as potentiation of doxorubicin-induced cytotoxicity by measuring fold reduction in doxorubicin IC50
Homo sapiens [9] = organism: Homo sapiens; assay: Inhibition of MRP in human lung cancer cells assessed as potentiation of doxorubicin-induced cytotoxicity by measuring fold reduction in doxorubicin IC50; type: cell-based
Homo sapiens [10] = organism: Homo sapiens; assay: Inhibition of P-gp in human SW620/DOX300 cells assessed as potentiation of doxorubicin-induced cytotoxicity by measuring fold reduction in doxorubicin IC50; type: cell-based
Homo sapiens [11] = organism: Homo sapiens; assay: Inhibition of P-gp in human CCRF-CEM/VLB100 cells assessed as potentiation of vincristine-induced cytotoxicity by measuring fold reduction in vincristine IC50
Homo sapiens [12] = organism: Homo sapiens; assay: Inhibition of P-gp in human KBV1 cells assessed as potentiation of vinblastine-induced cytotoxicity by measuring fold reduction in vinblastine IC50 at 50 uM; type: cell-based
Homo sapiens [13] = organism: Homo sapiens; assay: Inhibition of P-gp in human Caco2 cells assessed as potentiation of doxorubicin-induced cytotoxicity by measuring fold reduction in doxorubicin IC50; type: cell-based
[14] = Inhibition of P-gp in human HCT116/VM46 cells assessed as potentiation of paclitaxel-induced cytotoxicity; type: cell-based; conditions: HCT-116/VM46
Homo sapiens [15] = organism: Homo sapiens; assay: Inhibition of P-gp in human SW620/AD300 cells assessed as potentiation of taxol-induced cytotoxicity by measuring fold reduction in taxol IC50; type: cell-based
[16] = biological target: ATP-dependent translocase ABCB1 (Homo sapiens, UniProt P08183); assay: Inhibition of human MDR1 expressed in mouse L5178 cells assessed as accumulation of Rh123 by measuring fluorescence activity ratio preincubated for 10 mins followed by Rh123 addition measured after 20 mins by FACS analysis; type: cell-based
NCI-H460 = assay: Inhibition of P-gp in human NCI-H460 resistant cells assessed as potentiation of doxorubicin-induced cytotoxicity by measuring fold reduction in doxorubicin IC50; type: cell-based

Sequence of ATP-dependent translocase ABCB1 (P08183 whole entry): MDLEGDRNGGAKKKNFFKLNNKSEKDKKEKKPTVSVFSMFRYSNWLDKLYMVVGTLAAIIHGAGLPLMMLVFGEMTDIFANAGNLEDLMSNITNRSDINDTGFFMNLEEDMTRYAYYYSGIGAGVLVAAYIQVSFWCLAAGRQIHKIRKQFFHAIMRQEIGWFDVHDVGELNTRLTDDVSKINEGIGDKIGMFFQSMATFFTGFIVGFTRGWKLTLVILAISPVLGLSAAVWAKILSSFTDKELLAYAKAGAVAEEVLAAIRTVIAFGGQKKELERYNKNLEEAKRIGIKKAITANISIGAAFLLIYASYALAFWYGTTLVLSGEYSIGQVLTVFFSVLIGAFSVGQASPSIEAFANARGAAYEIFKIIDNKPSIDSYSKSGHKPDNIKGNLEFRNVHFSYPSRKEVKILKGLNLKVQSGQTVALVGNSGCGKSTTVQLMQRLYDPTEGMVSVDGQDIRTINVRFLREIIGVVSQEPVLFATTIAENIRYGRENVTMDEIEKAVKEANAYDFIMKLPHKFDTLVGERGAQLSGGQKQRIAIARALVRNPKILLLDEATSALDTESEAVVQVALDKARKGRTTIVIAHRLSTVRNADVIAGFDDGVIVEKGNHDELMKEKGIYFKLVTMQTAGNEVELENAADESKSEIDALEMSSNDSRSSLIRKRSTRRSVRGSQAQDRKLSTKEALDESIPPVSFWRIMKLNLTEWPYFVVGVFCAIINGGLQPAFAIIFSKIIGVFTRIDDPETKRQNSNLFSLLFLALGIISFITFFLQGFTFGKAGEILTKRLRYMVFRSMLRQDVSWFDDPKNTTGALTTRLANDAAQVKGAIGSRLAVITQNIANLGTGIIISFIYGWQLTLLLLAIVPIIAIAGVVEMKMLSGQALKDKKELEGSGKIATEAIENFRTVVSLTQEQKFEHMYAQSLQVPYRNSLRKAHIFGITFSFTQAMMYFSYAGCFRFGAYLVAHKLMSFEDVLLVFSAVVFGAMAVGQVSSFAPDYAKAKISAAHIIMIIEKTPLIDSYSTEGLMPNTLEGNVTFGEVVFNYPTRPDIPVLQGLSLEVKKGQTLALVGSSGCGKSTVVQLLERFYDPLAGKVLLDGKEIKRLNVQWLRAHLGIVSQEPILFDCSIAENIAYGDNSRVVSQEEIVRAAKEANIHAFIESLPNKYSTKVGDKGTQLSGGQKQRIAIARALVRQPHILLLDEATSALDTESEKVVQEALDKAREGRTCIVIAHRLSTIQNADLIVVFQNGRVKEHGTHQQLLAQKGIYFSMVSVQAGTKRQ

CCCCCCCCC(CC(=O)CCCCCCC(=O)O)n1cnc2c(N)ncnc21 (stereo unspecified)
fold change (FC) (K562/A02): 1.5 to 2.7

CC(C)[C@H](NC(=O)[C@H](CO)NC(=O)[C@@H](N)Cc1ccc(O)cc1)C(=O)O (H-Tyr-Ser-Val-OH)
fold change (FC) (Homo sapiens [1]): 3 | fold change (FC) (Homo sapiens [2]): 1 to 2

COc1ccc(/C=C/NC(=O)c2c(-c3cc(OC)c(OC)c(OC)c3)c(-c3cc(OC)c(OC)c(OC)c3)c(C(=O)N/C=C/c3ccc(OC)cc3)n2CCc2ccc(OC)cc2)cc1
fold change (FC) (Homo sapiens [3]): 66

COc1ccc2c(c1)C(=O)c1c(OC)c(OC)c(OC)c3ccnc-2c13
ED50 (MES-SA/Dx5): 0.03 µg/mL

O=C(/C=C/C=C/c1ccc2c(c1)OCO2)N1CCCCC1
fold change (FC) (Homo sapiens [4]): 32 | fold change (FC) (Homo sapiens [5]): 14 | fold change (FC) (Homo sapiens [6]): 7

C=CC(C)(C)[C@@]12C[C@H]3c4nc5ccccc5c(=O)n4CC(=O)N3[C@@H]1N(C(C)=O)c1ccccc12
fold change (FC) (Homo sapiens [7]): 200 | fold change (FC) (Homo sapiens [8]): 15 | fold change (FC) (Homo sapiens [9]): 66

CCCCCC(CC(C)=O)n1cnc2c(N)ncnc21 (stereo unspecified)
fold change (FC) (K562/A02): 1.5 to 2.7

COC(=O)c1c(-c2ccc(O)cc2)c(-c2ccc(O)cc2)cn1CC(=O)c1ccc(OC)cc1
fold change (FC) (Homo sapiens [10]): 5

C=CC(C)(C)[C@@]12C[C@H]3c4nc5ccccc5c(=O)n4[C@H](C)C(=O)N3[C@@H]1N(C(C)=O)c1ccccc12
fold change (FC) (Homo sapiens [11]): 700

COC1=C(C)C(=O)O/C1=C1\O[C@@]23CCCN4CCC[C@@H](O2)[C@H]4[C@H]3[C@@H]1C
fold change (FC) (Homo sapiens [12]): 4

C[n+]1cc2c3c(ccc2c2ccc4cc5c(cc4c21)OCO5)OCO3
fold change (FC) (Homo sapiens [13]): 18

COc1ccc(C2=C(c3ccc(OC)c(OC)c3)C(=O)N(CCc3cc(Br)c(OCc4ccccc4)c(OCCN4CCOCC4)c3)C2=O)cc1OC
EC50 [14]: 423 nM

C=C/C=C\[C@H](C)[C@H](OC(N)=O)[C@@H](C)[C@H](O)[C@@H](C)C/C(C)=C\[C@H](C)[C@@H](O)[C@@H](C)/C=C\[C@@H](O)C[C@@H]1OC(=O)[C@H](C)[C@@H](O)[C@H]1C
fold change (FC) (Homo sapiens [15]): 4

Cn1c2ccccc2c(=O)c2c(O)cc3c(c21)CC(C(C)(O)CO)O3 (stereo unspecified) [GRAVACRIDONDIOL]
Ratio [16]: 1.72

H-KILRGVCKKIMRTFLRRISKDILTGKK-OH
fold change (FC) (NCI-H460): 5

CC[C@@H](O)[C@H]1CC[C@H]2O[C@H]3CCN1[C@@H]2[C@@H]1C3O/C(=C2\OC(=O)C(C)=C2OC)[C@H]1C (stereo partly specified)
fold change (FC) (Homo sapiens [12]): 2
